Source: patent publication US20250197372A1 (priority 2020, published 2025)

These compounds were tested against rat maltase (partially purified alpha-glucosidase from intestinal rat powder) (assay: Intestinal alpha-glucosidase assay, maltose substrate (Glucose GO Kit)).
Assay type: biochemical
Description: Intestinal alpha-glucosidases (rat maltase and sucrase): Intestinal alpha-glucosidases act upon 1,4-alpha-glucoside bonds, breaking down disaccharides to glucose. To perform this assay, partially purified alpha-glucosidase from intestinal rat powder was incubated for 60 minutes at 37° C. with multiple dilutions of test compounds. Maltose or Sucrose respectively was then introduced as substrate to the mixture and incubated for 30 minutes at 37° C. The reaction was stopped by a 5-minute incubation at 90° C. and the resultant glucose production is detected using Sigma's Glucose GO Kit. Percent inhibition was then plotted as a function of concentration for each test compound. The IC50 was determined using a 4-PL curve fit and serves as the measure of relative inhibition of each test compound (see Table 3).
`C[C@@H]1CN(c2ccc(NCc3ccc(CN4C[C@H](O)[C@@H](O)[C@H](O)[C@H]4CO)cc3)c([N+](=O)[O-])c2)C[C@H](C)O1` [Compound 1014] was tested, and the IC50 was 6 nM.
Compound `[N-]=[N+]=Nc1ccc(NCCc2ccc(CCN3C[C@H](O)[C@@H](O)[C@H](O)[C@H]3CO)cc2)c([N+](=O)[O-])c1` [Compound 1200, (2R,3R,4R,5S)-1-[2-(4-{2-[(4-azido-2-nitrophenyl)amino]ethyl}phenyl)ethyl]-2-(hydroxymethyl)piperidine-3,4,5-triol] has an IC50 of 81 nM.
In the case of `[N-]=[N+]=Nc1ccc(NCCn2cc(CCN3C[C@H](O)[C@@H](O)[C@H](O)[C@H]3CO)c3ccccc32)c([N+](=O)[O-])c1` [Compound 1177, (2R,3R,4R,5S)-1-[2-(1-{2-[(4-azido-2-nitrophenyl)amino]ethyl}-1H-indol-3-yl)ethyl]-2-(hydroxymethyl)piperidine-3,4,5-triol], the IC50 is reported as 32 nM.
For `COc1cc(NCCCCCCN2C[C@H](O)[C@@H](O)[C@H](O)[C@H]2CO)cc(C2CCCO2)c1` (stereo partly drawn) [Compound 1146, (2R,3R,4R,5S)-2-(hydroxymethyl)-1-(6-{[3-methoxy-5-(oxolan-2-yl)phenyl]amino}hexyl)piperidine-3,4,5-triol], the IC50 was 23 nM.
`OC[C@@H]1[C@@H](O)[C@H](O)[C@@H](O)CN1Cc1ccc(CNc2ccc(N3CCOCC3)cc2)cc1` [Compound 1068] showed an IC50 of 49 nM.
In the case of `Cc1cc(-c2ccco2)ccc1NCc1ccc(CN2C[C@H](O)[C@@H](O)[C@H](O)[C@H]2CO)cc1` [Compound 1324, (2R,3R,4R,5S)-1-{[4-({[4-(furan-2-yl)-2-methylphenyl]amino}methyl)phenyl]methyl}-2-(hydroxymethyl)piperidine-3,4,5-triol], the IC50 is reported as less than 1 nM.
`COc1cc(-c2ncco2)ccc1NCCCCCCN1C[C@H](O)[C@@H](O)[C@H](O)[C@H]1CO` [Compound 1207, (2R,3R,4R,5S)-2-(hydroxymethyl)-1-(6-{[2-methoxy-4-(1,3-oxazol-2-yl)phenyl]amino}hexyl)piperidine-3,4,5-triol] was tested, and the IC50 was 7 nM.
`O=Cc1cc(NCCCCCCN2C[C@H](O)[C@@H](O)[C@H](O)[C@H]2CO)cc(-c2ncccn2)c1` [Compound 1129, 3-(pyrimidin-2-yl)-5-({6-[(2R,3R,4R,5S)-3,4,5-trihydroxy-2-(hydroxymethyl)piperidin-1-yl]hexyl}amino)benzaldehyde] was tested, and the IC50 was 5 nM.
In the case of `[N-]=[N+]=Nc1ccc(NCCc2nccc(CCN3C[C@H](O)[C@@H](O)[C@H](O)[C@H]3CO)n2)c([N+](=O)[O-])c1` [Compound 1188, (2R,3R,4R,5S)-1-[2-(2-{2-[(4-azido-2-nitrophenyl)amino]ethyl}pyrimidin-4-yl)ethyl]-2-(hydroxymethyl)piperidine-3,4,5-triol], the IC50 is reported as 164 nM.
With `Cc1cc(NCc2cccc(CN3C[C@H](O)[C@@H](O)[C@H](O)[C@H]3CO)c2)cc(-c2ncccn2)c1` [Compound 1035, (2R,3R,4R,5S)-2-(hydroxymethyl)-1-{[3-({[3-methyl-5-(pyrimidin-2-yl)phenyl]amino}methyl)phenyl]methyl}piperidine-3,4,5-triol] the IC50 was 49 nM.
Compound `COc1cc(NCCCCCCN2C[C@H](O)[C@@H](O)[C@H](O)[C@H]2CO)cc(C2CCCCC2)c1` [Compound 1148, (2R,3R,4R,5S)-1-{6-[(3-cyclohexyl-5-methoxyphenyl)amino]hexyl}-2-(hydroxymethyl)piperidine-3,4,5-triol] has an IC50 of less than 1 nM.
`COc1cc(NCCc2ccc(CCN3C[C@H](O)[C@@H](O)[C@H](O)[C@H]3CO)cc2)cc(-c2ccco2)c1` [Compound 1153, (2R,3R,4R,5S)-1-{2-[4-(2-{[3-(furan-2-yl)-5-methoxy-phenyl]amino}ethyl)phenyl]ethyl}-2-(hydroxymethyl)piperidine-3,4,5-triol] was tested, and the IC50 was 321 nM.
For `OC[C@@H]1[C@@H](O)[C@H](O)[C@@H](O)CN1CCCCCCNc1ccc(-c2cccnn2)cc1Cl` [Compound 1202, (2R,3R,4R,5S)-1-(6-{[2-chloro-4-(pyridazin-3-yl)phenyl]amino}hexyl)-2-(hydroxymethyl)piperidine-3,4,5-triol], the IC50 was less than 1 nM.
For `COc1cc(NCCc2ccc(CCN3C[C@H](O)[C@@H](O)[C@H](O)[C@H]3CO)cc2)cc(C2=CCOCC2)c1` [Compound 1154, (2R,3R,4R,5S)-1-{2-[4-(2-{[3-(3,6-dihydro-2H-pyran-4-yl)-5-methoxyphenyl]amino}ethyl)phenyl]ethyl}-2-(hydroxymethyl)piperidine-3,4,5-triol], the IC50 was 624 nM.
For `COc1cc(CC2CCOC2)cc(NCCCCCCN2C[C@H](O)[C@@H](O)[C@H](O)[C@H]2CO)c1` (stereo partly drawn) [Compound 1141, (2R,3R,4R,5S)-2-(hydroxymethyl)-1-[6-({3-methoxy-5-[(oxolan-3-yl)methyl]phenyl}amino)hexyl]piperidine-3,4,5-triol], the IC50 was 43 nM.
In the case of `COc1cc(NCCCCCCN2C[C@H](O)[C@@H](O)[C@H](O)[C@H]2CO)cc(-c2cnccn2)c1` [Compound 1197, (2R,3R,4R,5S)-2-(hydroxymethyl)-1-(6-{[3-methoxy-5-(pyrazin-2-yl)phenyl]amino}hexyl)piperidine-3,4,5-triol], the IC50 is reported as 9 nM.
`[N-]=[N+]=Nc1ccc(NCCc2cc(Br)cc(CCN3C[C@H](O)[C@@H](O)[C@H](O)[C@H]3CO)c2)c([N+](=O)[O-])c1` [Compound 1140, (2R,3R,4R,5S)-1-[2-(3-{2-[(4-azido-2-nitrophenyl)amino]ethyl}-5-bromophenyl)ethyl]-2-(hydroxymethyl)piperidine-3,4,5-triol] was tested, and the IC50 was 3120 nM.
With `OC[C@@H]1[C@@H](O)[C@H](O)[C@@H](O)CN1CCc1ccc(CCNc2cc(Cl)cc(-c3ncon3)c2)cc1` [Compound 1113, (2R,3R,4R,5S)-1-{2-[4-(2-{[3-chloro-5-(1,2,4-oxadiazol-3-yl)phenyl]amino}ethyl)phenyl]ethyl}-2-(hydroxymethyl)piperidine-3,4,5-triol] the IC50 was 20 nM.
`OC[C@@H]1[C@@H](O)[C@H](O)[C@@H](O)CN1CCCCCCNc1cc(Cl)cc(-c2cnccn2)c1` [Compound 1196, (2R,3R,4R,5S)-1-(6-{[3-chloro-5-(pyrazin-2-yl)phenyl]amino}hexyl)-2-(hydroxymethyl)piperidine-3,4,5-triol] gave an IC50 of 2 nM.
`OC[C@@H]1[C@@H](O)[C@H](O)[C@@H](O)CN1Cc1ccc(CNc2cc(-c3cccnn3)cc(C3CC3)c2)cc1` [Compound 1012, (2R,3R,4R,5S)-1-{[4-({[3-cyclopropyl-5-(pyridazin-3-yl)phenyl]amino}methyl)phenyl]methyl}-2-(hydroxymethyl)piperidine-3,4,5-triol] gave an IC50 of 9 nM.
`CS(=O)(=O)c1cc(NCc2ccc(CN3C[C@H](O)[C@@H](O)[C@H](O)[C@H]3CO)cc2)cc(-c2cccnn2)c1` [Compound 1058, (2R,3R,4R,5S)-2-(hydroxymethyl)-1-{[4-({[3-methanesulfonyl-5-(pyridazin-3-yl)phenyl]amino}methyl)phenyl]methyl}piperidine-3,4,5-triol] was tested, and the IC50 was 8 nM.
Work on `COc1cc(NCCc2ccc(CCN3C[C@H](O)[C@@H](O)[C@H](O)[C@H]3CO)cc2)cc(-c2ncccn2)c1` [Compound 1156, (2R,3R,4R,5S)-2-(hydroxymethyl)-1-{2-[4-(2-{[3-methoxy-5-(pyrimidin-2-yl)phenyl]amino}ethyl)phenyl]ethyl}piperidine-3,4,5-triol] yielded an IC50 of 287 nM.
For `N#Cc1cc(NCc2cccc(CN3C[C@H](O)[C@@H](O)[C@H](O)[C@H]3CO)c2)cc(C2=COCCO2)c1` [Compound 1044, 3-(5,6-dihydro-1,4-dioxin-2-yl)-5-{[(3-{[(2R,3R,4R,5S)-3,4,5-trihydroxy-2-(hydroxymethyl)piperidin-1-yl]methyl}phenyl)methyl]amino}benzonitrile], the IC50 was less than 1 nM.
`CS(=O)(=O)c1cc(Br)cc(NCc2cccc(CN3C[C@H](O)[C@@H](O)[C@H](O)[C@H]3CO)c2)c1` [Compound 1022, (2R,3R,4R,5S)-1-[(3-{[(3-bromo-5-methanesulfonylphenyl)amino]methyl}phenyl)methyl]-2-(hydroxymethyl)piperidine-3,4,5-triol] showed an IC50 of 28 nM.
`[N-]=[N+]=Nc1ccc(NCCc2ccc(CCN3C[C@H](O)[C@@H](O)[C@H](O)[C@H]3CO)s2)c([N+](=O)[O-])c1` [Compound 1186, (2R,3R,4R,5S)-1-[2-(5-{2-[(4-azido-2-nitrophenyl)amino]ethyl}hiophen-2-yl)ethyl]-2-(hydroxymethyl)piperidine-3,4,5-triol] showed an IC50 of 5 nM.
For `OC[C@@H]1[C@@H](O)[C@H](O)[C@@H](O)CN1CCc1ccc(CCNc2cc(Cl)cc(-c3cccnn3)c2)cc1` [Compound 1163, (2R,3R,4R,5S)-1-{2-[4-(2-{[3-chloro-5-(pyridazin-3-yl)phenyl]amino}ethyl)phenyl]ethyl}-2-(hydroxymethyl)piperidine-3,4,5-triol], the IC50 was 309 nM.
`[N-]=[N+]=Nc1ccc(NCCc2cc(CCN3C[C@H](O)[C@@H](O)[C@H](O)[C@H]3CO)cs2)c([N+](=O)[O-])c1` [Compound 1179, (2R,3R,4R,5S)-1-[2-(5-{2-[(4-azido-2-nitrophenyl)amino]ethyl}thiophen-3-yl)ethyl]-2-(hydroxymethyl)piperidine-3,4,5-triol] showed an IC50 of 1 nM.
For `CC(=O)Nc1cc(NCCCCCCN2C[C@H](O)[C@@H](O)[C@H](O)[C@H]2CO)cc(-c2ncccn2)c1` [Compound 1125, N-[3-(pyrimidin-2-yl)-5-({6-[(2R,3R,4R,5S)-3,4,5-trihydroxy-2-(hydroxymethyl)piperidin-1-yl]hexyl}amino)phenyl]acetamide], the IC50 was 15 nM.
`CN(C)C(=O)c1cc(NCCCCCCN2C[C@H](O)[C@@H](O)[C@H](O)[C@H]2CO)cc(-c2ncccn2)c1` [Compound 1126, N,N-dimethyl-3-(pyrimidin-2-yl)-5-({6-[(2R,3R,4R,5S)-3,4,5-trihydroxy-2-(hydroxymethyl)piperidin-1-yl]hexyl}amino)benzamide] was tested, and the IC50 was 23 nM.
